Source: patent US11072608B2, “Pesticidally active heterocyclic derivatives with sulphur containing substituents” (SYNGENTA PARTICIPATIONS AG, priority 2014, dated 2021)

Key:
Assay type in all cases: in vivo
[1] = system: Spodoptera littoralis (Egyptian cotton leaf worm); experiment: Example B1: activity against Spodoptera littoralis, cotton leaf disc spray; settings: foliar, 72 h, application rate of 200 ppm, cotton leaf discs, L1 larvae, 3 days after infestation, read-out: control in at least one of the three categories (mortality, anti-feedancy or growth inhibition)
Method: Example B1: Activity Against Spodoptera littoralis (Egyptian Cotton Leaf Worm)
Cotton leaf discs were placed on agar in 24-well microtiter plates and sprayed with aqueous test solutions prepared from 10,000 ppm DMSO stock solutions. After drying the leaf discs were infested with five L1 larvae. The samples were assessed for mortality, anti-feedant effect, and growth inhibition in comparison to untreated samples 3 days after infestation. Control of Spodoptera littoralis by a test sample is when at least one of mortality, anti-feedant effect, and growth inhibition is higher than the untreated sample. The following compound gave an effect of at least 80% control in at least one of the three categories (mortality, anti-feedancy or growth inhibition) at an application rate of 200 ppm: P1, P4, P5, P8, P9, P10, P12 and P13.

[2] = system: Spodoptera littoralis (Egyptian cotton leaf worm); experiment: Example B2: activity against Spodoptera littoralis, systemic via lettuce on agar; settings: 144 h, application rate of 12.5 ppm, Spodoptera eggs, 6 days after infestation, read-out: control in at least one of the three categories (mortality, anti-feedancy or growth inhibition)
Excerpt: Example B2: Activity Against Spodoptera Littoralis (Egyptian Cotton Leaf Worm)
Test compounds were applied by pipette from 10,000 ppm DMSO stock solutions into 24-well plates and mixed with agar. Lettuce seeds were placed on the agar and the multi well plate was closed by another plate which contains also agar. After 7 days the roots have absorbed the compound and the lettuce has grown into the lid plate. The lettuce leafs were now cut off into the lid plate. Spodoptera eggs were pipetted through a plastic stencil on a humid gel blotting paper and the plate closed with it. The samples were assessed for mortality, anti-feedant effect and growth inhibition in comparison to untreated samples 6 days after infestation. The following compound gave an effect of at least 80% control in at least one of the three categories (mortality, anti-feedancy or growth inhibition) at an application rate of 12.5 ppm: P1, P4, P9, P12 and P13.

[3] = system: Plutella xylostella (diamond back moth); experiment: Example B3: activity against Plutella xylostella, artificial diet; settings: 120 h, application rate of 200 ppm, L2 larvae, 5 days after infestation, read-out: effect in at least one of the two categories (mortality or growth inhibition)
Method: Example B3: Activity Against Plutella xylostella (Diamond Back Moth)
24-well microtiter plates with artificial diet were treated with aqueous test solutions prepared from 10,000 ppm DMSO stock solutions by pipetting. After drying, the plates were infested with L2 larvae (10 to 15 per well). The samples were assessed for mortality and growth inhibition in comparison to untreated samples 5 days after infestation. The following compound gave an effect of at least 80% in at least one of the two categories (mortality or growth inhibition) at an application rate of 200 ppm: P1, P4, P5, P6, P8, P9, P10, P11, P12 and P13.

[4] = system: Diabrotica balteata (corn root worm); experiment: Example B4: activity against Diabrotica balteata, maize sprouts spray; settings: 96 h, application rate of 200 ppm, L2 larvae, 4 days after infestation, read-out: effect in at least one of the two categories (mortality or growth inhibition)
Method: Example B4: Activity Against Diabrotica balteata (Corn Root Worm)
Maize sprouts, placed on an agar layer in 24-well microtiter plates were treated with aqueous test solutions prepared from 10,000 ppm DMSO stock solutions by spraying. After drying, the plates were infested with L2 larvae (6 to 10 per well). The samples were assessed for mortality and growth inhibition in comparison to untreated samples 4 days after infestation. The following compounds gave an effect of at least 80% in at least one of the two categories (mortality or growth inhibition) at an application rate of 200 ppm: P1, P4, P5, P6, P8, P9, P10, P11, P12 and P13.

[5] = system: Myzus persicae (green peach aphid); experiment: Example B5: activity against Myzus persicae, sunflower leaf disc spray; settings: foliar, 144 h, application rate of 200 ppm, sunflower leaf discs, mixed ages, 6 days after infestation
Method: Example B5: Activity Against Myzus persicae (Green Peach Aphid)
Sunflower leaf discs were placed on agar in a 24-well microtiter plate and sprayed with aqueous test solutions prepared from 10,000 ppm DMSO stock solutions. After drying, the leaf discs were infested with an aphid population of mixed ages. The samples were assessed for mortality 6 days after infestation.

[6] = system: Myzus persicae (green peach aphid); experiment: Example B6: activity against Myzus persicae, sucrose solution through Parafilm; settings: 120 h, test rate of 12 ppm, 5 days after infestation
Excerpt: Example B6: Activity Against Myzus persicae (Green Peach Aphid)
Test compounds from 10,000 ppm DMSO stock solutions were applied by pipette into 24-well microtiter plates and mixed with sucrose solution. The plates were closed with a stretched Parafilm. A plastic stencil with 24 holes was placed onto the plate and infested pea seedlings were placed directly on the Parafilm. The infested plate was closed with a gel blotting paper and another plastic stencil and then turned upside down. The samples were assessed for mortality 5 days after infestation.

[7] = system: Euschistus heros (neotropical brown stink bug); experiment: Example B8: activity against Euschistus heros, soybean leaf spray; settings: 120 h, application rate of 200 ppm, N-2 nymphs, 5 days after infestation
Method: Example B8: Activity Against Euschistus heros (Neotropical Brown Stink Bug)
Soybean leaf on agar in 24-well microtiter plates were sprayed with aqueous test solutions prepared from 10,000 ppm DMSO stock solutions. After drying the leaf were infested with N-2 nymphs. The samples were assessed for mortality 5 days after infestation.

CCSc1cc(C2CC2)cnc1-c1nc2cc(C(F)(F)F)cnc2n1C [Compound P1, 2-(5-cyclopropyl-3-ethylsulfanyl-2-pyridyl)-3-methyl-6-(trifluoromethyl)imidazo[4,5-b]pyridine]
≥ 80%: percent control (mortality, anti-feedancy or growth inhibition) at 200 ppm [1] | control at 12.5 ppm [2] | percent effect (mortality or growth inhibition) at 200 ppm [3] | percent effect (mortality or growth inhibition) at 200 ppm [4] | mortality at 200 ppm [5] | mortality at 12 ppm [6] | mortality at 200 ppm [7]
